Measurements published in the supplement of paper PMC8612539.
≈ marks a conversion by molar mass, not a printed value.

Experiments:
[1] = test system: Enterococcus spp.; experiment: minimum inhibitory concentration (MIC)
Experimental: (§1)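 Broth microdilution MIC (Sensititre BOPO7F bovine plate, CLSI methods) of 19 antimicrobials against field isolates of P. multocida, M. haemolytica, H. somni (deep nasopharyngeal swabs) and E. coli, Enterococcus spp. (rectal swabs) from weaned dairy heifers. Incubation 16-24 h at 35 C. MIC is the lowest concentration preventing visible growth. Values with <= or > lie at the tested range limits. Trimethoprim-sulfamethoxazole is given as the trimethoprim component of a 1:19 mixture.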

[2] = test system: Mannheimia haemolytica; experiment: minimum inhibitory concentration (MIC)
Experimental: as §1

CCCNC[C@]1(O)[C@H](C)O[C@@H](O[C@H]2[C@H](C)[C@@H](O[C@@H]3O[C@H](C)C[C@H](N(C)C)[C@H]3O)[C@](C)(O)C[C@@H](C)CN[C@H](C)[C@@H](O)[C@](C)(O)[C@@H](CC)OC(=O)[C@@H]2C)C[C@@]1(C)OC [Tulathromycin]
minimum inhibitory concentration [µg/mL]
Details | [1] | [2]
isolate (source animal id): 2 | ≤ 8 | –
isolate (source animal id): 8 | – | ≤ 8
isolate (source animal id): 13 | – | ≤ 8
isolate (source animal id): 18 | – | ≤ 8
isolate (source animal id): 21 | – | ≤ 8
isolate (source animal id): 25 | – | 16 (≈ 19.8 µM)
isolate (source animal id): 27 | – | 16 (≈ 19.8 µM)
isolate (source animal id): 28 | – | ≤ 8
isolate (source animal id): 30 | – | ≤ 8
isolate (source animal id): 31 | – | 16 (≈ 19.8 µM)
isolate (source animal id): 32 | – | ≤ 8
isolate (source animal id): 34 | – | ≤ 8
isolate (source animal id): 35 | > 64 | –
isolate (source animal id): 36 | – | 16 (≈ 19.8 µM)
isolate (source animal id): 37 | – | 16 (≈ 19.8 µM)
isolate (source animal id): 40 | – | ≤ 8
isolate (source animal id): 41 | – | ≤ 8
isolate (source animal id): 42 | ≤ 8 | –
isolate (source animal id): 43 | – | ≤ 8
isolate (source animal id): 44 | ≤ 8 | –
isolate (source animal id): 46 | – | 16 (≈ 19.8 µM)
isolate (source animal id): 49 | – | 16 (≈ 19.8 µM)
isolate (source animal id): 50 | – | 16 (≈ 19.8 µM)
isolate (source animal id): 51 | – | ≤ 8
isolate (source animal id): 52 | – | ≤ 8
isolate (source animal id): 53 | – | ≤ 8
isolate (source animal id): 55 | – | ≤ 8
isolate (source animal id): 56 | – | ≤ 8
isolate (source animal id): 57 | – | > 64
isolate (source animal id): 79 | ≤ 8 | –
isolate (source animal id): 88 | ≤ 8 | –
isolate (source animal id): 91 | ≤ 8 | –
isolate (source animal id): 92 | 16 (≈ 19.8 µM) | –
isolate (source animal id): 100 | – | 16 (≈ 19.8 µM)
isolate (source animal id): 103 | – | 16 (≈ 19.8 µM)
isolate (source animal id): 107 | – | 16 (≈ 19.8 µM)
isolate (source animal id): 108 | – | 16 (≈ 19.8 µM)
isolate (source animal id): 111 | ≤ 8 | –
isolate (source animal id): 112 | – | > 64
isolate (source animal id): 113 | – | > 64
isolate (source animal id): 121 | – | 16 (≈ 19.8 µM)
isolate (source animal id): 122 | > 64 | 16 (≈ 19.8 µM)
isolate (source animal id): 123 | ≤ 8 | > 64
isolate (source animal id): 126 | – | 64 (≈ 79.4 µM)
isolate (source animal id): 133 | ≤ 8 | > 64
isolate (source animal id): 135 | – | > 64
isolate (source animal id): 138 | – | 64 (≈ 79.4 µM)
isolate (source animal id): 141 | – | > 64
isolate (source animal id): 142 | – | 64 (≈ 79.4 µM)
isolate (source animal id): 145 | – | 16 (≈ 19.8 µM)
isolate (source animal id): 149 | – | ≤ 8
isolate (source animal id): 151 | – | ≤ 8
isolate (source animal id): 152 | – | 16 (≈ 19.8 µM)
isolate (source animal id): 154 | – | ≤ 8
isolate (source animal id): 158 | > 64 | –
isolate (source animal id): 159 | – | > 64
isolate (source animal id): 162 | – | 64 (≈ 79.4 µM)
isolate (source animal id): 168 | ≤ 8 | –
isolate (source animal id): 169 | ≤ 8 | –
isolate (source animal id): 170 | – | ≤ 8
isolate (source animal id): 171 | ≤ 8 | ≤ 8
isolate (source animal id): 172 | – | ≤ 8
isolate (source animal id): 173 | – | ≤ 8
isolate (source animal id): 175 | > 64 | –
isolate (source animal id): 177 | ≤ 8 | –
isolate (source animal id): 179 | – | ≤ 8
isolate (source animal id): 180 | – | ≤ 8
isolate (source animal id): 181 | ≤ 8 | –
isolate (source animal id): 182 | ≤ 8 | –
isolate (source animal id): 183 | ≤ 8 | ≤ 8
isolate (source animal id): 186 | – | ≤ 8
isolate (source animal id): 187 | ≤ 8 | ≤ 8
isolate (source animal id): 188 | – | ≤ 8
isolate (source animal id): 190 | ≤ 8 | ≤ 8
isolate (source animal id): 191 | – | ≤ 8
isolate (source animal id): 192 | – | ≤ 8
isolate (source animal id): 194 | ≤ 8 | –
isolate (source animal id): 195 | ≤ 8 | –
isolate (source animal id): 197 | ≤ 8 | –
isolate (source animal id): 201 | – | ≤ 8
isolate (source animal id): 202 | – | ≤ 8
isolate (source animal id): 209 | – | ≤ 8
isolate (source animal id): 211 | ≤ 8 | ≤ 8
isolate (source animal id): 214 | 16 (≈ 19.8 µM) | –
isolate (source animal id): 220 | – | ≤ 8
isolate (source animal id): 221 | – | ≤ 8
isolate (source animal id): 222 | ≤ 8 | –
isolate (source animal id): 223 | ≤ 8 | ≤ 8
isolate (source animal id): 228 | > 64 | –
isolate (source animal id): 230 | > 64 | –
isolate (source animal id): 233 | – | 16 (≈ 19.8 µM)
isolate (source animal id): 235 | > 64 | –
isolate (source animal id): 236 | ≤ 8 | –
isolate (source animal id): 237 | – | 32 (≈ 39.7 µM)
isolate (source animal id): 239 | ≤ 8 | –
isolate (source animal id): 241 | > 64 | 16 (≈ 19.8 µM)
isolate (source animal id): 244 | ≤ 8 | –
isolate (source animal id): 246 | ≤ 8 | –
isolate (source animal id): 247 | > 64 | –
isolate (source animal id): 250 | ≤ 8 | –
isolate (source animal id): 252 | > 64 | 16 (≈ 19.8 µM)
isolate (source animal id): 253 | – | 16 (≈ 19.8 µM)
isolate (source animal id): 259 | – | > 64
isolate (source animal id): 260 | – | 16 (≈ 19.8 µM)
isolate (source animal id): 262 | – | 16 (≈ 19.8 µM)
isolate (source animal id): 268 | > 64 | –
isolate (source animal id): 282 | ≤ 8 | > 64
isolate (source animal id): 285 | > 64 | –
isolate (source animal id): 287 | – | 16 (≈ 19.8 µM)
isolate (source animal id): 288 | – | ≤ 8
isolate (source animal id): 289 | ≤ 8 | –
isolate (source animal id): 290 | ≤ 8 | –
isolate (source animal id): 291 | – | ≤ 8
isolate (source animal id): 293 | – | 16 (≈ 19.8 µM)
isolate (source animal id): 296 | ≤ 8 | –
isolate (source animal id): 298 | ≤ 8 | > 64
isolate (source animal id): 299 | – | > 64
isolate (source animal id): 300 | – | ≤ 8
isolate (source animal id): 301 | ≤ 8 | –
isolate (source animal id): 302 | – | > 64
isolate (source animal id): 304 | – | > 64
isolate (source animal id): 306 | – | ≤ 8
isolate (source animal id): 308 | – | ≤ 8
isolate (source animal id): 309 | – | ≤ 8
isolate (source animal id): 310 | > 64 | –
isolate (source animal id): 313 | – | 32 (≈ 39.7 µM)
isolate (source animal id): 318 | – | ≤ 8
isolate (source animal id): 320 | ≤ 8 | ≤ 8
isolate (source animal id): 321 | – | 32 (≈ 39.7 µM)
isolate (source animal id): 323 | – | > 64
isolate (source animal id): 324 | – | 16 (≈ 19.8 µM)
isolate (source animal id): 326 | – | 32 (≈ 39.7 µM)
isolate (source animal id): 328 | – | 32 (≈ 39.7 µM)
isolate (source animal id): 329 | – | 32 (≈ 39.7 µM)
isolate (source animal id): 331 | ≤ 8 | –
isolate (source animal id): 333 | ≤ 8 | 32 (≈ 39.7 µM)
isolate (source animal id): 335 | – | 16 (≈ 19.8 µM)
isolate (source animal id): 338 | – | 16 (≈ 19.8 µM)
isolate (source animal id): 341 | > 64 | –
